Experimental data as given in patent US7566712B2, “Biaryl piperazinyl-pyridine analogues” (Neurogen Corporation, priority 2003, dated 2009).

What follows are compounds tested against T1, human capsaicin receptor (Homo sapiens, UniProt Q8NER1) (assay: Calcium mobilization assay, determination of antagonist activity (Example 6)). Details: Table II; IC50 determined as described in Example 6.
T1 construct: pBK-CMV expression construct encoding the full length human capsaicin receptor; expressed in transfected cells
Assay type: cell-based
Description: A cDNA encoding full length human capsaicin receptor (SEQ ID NO: 1, 2 or 3 of U.S. Pat. No. 6,482,611) was subcloned in the plasmid pBK-CMV (Stratagene, La Jolla, Calif.) for recombinant expression in mammalian cells.
Human embryonic kidney (HEK293) cells were transfected with the pBK-CMV expression construct encoding the full length human capsaicin receptor using standard methods. The transfected cells were selected for two weeks in media containing G418 (400 μg/ml) to obtain a pool of stably transfected cells. Independent clones were isolated from this pool by limiting dilution to obtain clonal stable cell lines for use in subsequent experiments.
This Example illustrates representative calcium mobilization assays for use in evaluating test compounds for agonist and antagonist activity.
Cells transfected with expression plasmids (as described in Example 4) and thereby expressing human capsaicin receptor are seeded and grown to 70-90% confluency in FALCON black-walled, clear-bottomed 96-well plates (#3904, BECTON-DICKINSON, Franklin Lakes, N.J.). The culture medium is emptied from the 96 well plates and FLUO-3 AM calcium sensitive dye (Molecular Probes, Eugene, Oreg.) is added to each well (dye solution: 1 mg FLUO-3 AM, 440 μL DMSO and 440 pi 20% pluronic acid in DMSO, diluted 1:250 in Krebs-Ringer HEPES (KRH) buffer (25 mM HEPES, 5 mM KCl, 0.96 mM NaH2PO4, 1 mM MgSO4, 2 mM CaCl2, 5 mM glucose, 1 mM probenecid, pH 7.4), 50 μl diluted solution per well). Plates are covered with aluminum foil and incubated at 37° C. for 1-2 hours in an environment containing 5% CO2. After the incubation, the dye is emptied from the plates, and the cells are washed once with KRH buffer, and resuspended in KRH buffer.
To measure the ability of a test compound to agonize or antagonize a calcium mobilization response in cells expressing capsaicin receptors to capsaicin or other vanilloid agonist, the EC50 of the agonist capsaicin is first determined. An additional 20 μl of KRH buffer and 1 μl DMSO is added to each well of cells, prepared as described above. 100 μl capsaicin in KRH buffer is automatically transferred by the FLIPR instrument to each well. Capsaicin-induced calcium mobilization is monitored using either FLUOROSKAN ASCENT (Labsystems; Franklin, Mass.) or FLIPR (fluorometric imaging plate reader system; Molecular Devices, Sunnyvale, Calif.) instruments. Data obtained between 30 and 60 seconds after agonist application are used to generate an 8-point concentration response curve, with final capsaicin concentrations of 1 nM to 3 μM. KALEIDAGRAPH software (Synergy Software, Reading, Pa.) is used to fit the data to the equation: y=a*(1/(1+(b/x)^c)) to determine the 50% excitatory concentration (EC50) for the response. In this equation, y is the maximum fluorescence signal, x is the concentration of the agonist or antagonist (in this case, capsaicin), a is the Emax, b corresponds to the EC50 value and c is the Hill coefficient. Determination of Agonist Activity
Test compounds are dissolved in DMSO, diluted in 20 μl KRH buffer so that the final concentration of test compounds in the assay well is between 1 μM and 5 μM, and added to cells prepared as described above. The 96 well plates containing prepared cells and test compounds are incubated in the dark, at room temperature for 0.5 to 6 hours. It is important that the incubation not continue beyond 6 hours. Just prior to determining the fluorescence response, 100 pi capsaicin in KRH buffer at twice the EC50 concentration determined as described above is automatically added by the FLIPR instrument to each well of the 96 well plate for a final sample volume of 200 μl and a final capsaicin concentration equal to the EC50. The final concentration of test compounds in the assay wells is between 1 μM and 5 μM. […]

T1 sequence (Q8NER1 whole entry): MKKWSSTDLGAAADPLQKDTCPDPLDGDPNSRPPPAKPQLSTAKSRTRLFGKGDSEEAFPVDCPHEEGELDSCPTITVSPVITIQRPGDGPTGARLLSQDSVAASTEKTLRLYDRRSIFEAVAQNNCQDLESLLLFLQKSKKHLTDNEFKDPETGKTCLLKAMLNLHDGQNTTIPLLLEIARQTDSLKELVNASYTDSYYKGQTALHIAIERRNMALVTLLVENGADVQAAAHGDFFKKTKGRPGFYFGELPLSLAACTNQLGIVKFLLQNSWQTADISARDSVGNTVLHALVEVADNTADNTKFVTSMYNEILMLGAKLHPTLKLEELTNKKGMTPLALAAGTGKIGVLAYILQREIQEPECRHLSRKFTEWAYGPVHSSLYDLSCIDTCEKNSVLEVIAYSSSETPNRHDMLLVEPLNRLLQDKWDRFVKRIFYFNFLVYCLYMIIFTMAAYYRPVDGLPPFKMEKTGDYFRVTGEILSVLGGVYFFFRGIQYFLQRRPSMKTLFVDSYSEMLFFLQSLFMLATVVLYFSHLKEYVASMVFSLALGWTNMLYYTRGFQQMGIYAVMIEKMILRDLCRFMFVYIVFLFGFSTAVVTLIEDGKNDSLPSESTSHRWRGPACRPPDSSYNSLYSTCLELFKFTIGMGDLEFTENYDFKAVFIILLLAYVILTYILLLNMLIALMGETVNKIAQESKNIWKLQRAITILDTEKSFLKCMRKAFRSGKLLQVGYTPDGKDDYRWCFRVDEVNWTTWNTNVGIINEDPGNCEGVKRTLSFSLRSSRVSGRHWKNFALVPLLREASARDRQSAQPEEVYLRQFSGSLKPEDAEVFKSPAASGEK

IC50, ≤ 1000 nM:
N#Cc1cccc(-c2nc(N3CCOCC3)nc(N3CCN(c4ncccc4C(F)(F)F)CC3)n2)c1 [Example 435, 3-(4-morpholin-4-yl-6-{4-[3-(trifluoromethyl)pyridin-2-yl]piperazin-1-yl}-1,3,5-triazin-2-yl)benzonitrile]
CCOc1cccc(-c2cc(N3CCN(c4ncccc4Cl)C[C@H]3C)nc(N3CCOCC3)n2)c1 [Example 531, 4-[4-[(2R)-4-(3-chloropyridin-2-yl)-2-methylpiperazin-1-yl]-6-(3-ethoxyphenyl)pyrimidin-2-yl]morpholine]
CN(CCO)c1nc(-c2ccc(F)c(Cl)c2)cc(N2CCN(c3ncccc3C(F)(F)F)CC2)n1 [Example 549, 2-[(4-(3-chloro-4-fluorophenyl)-6-{4-[3-(trifluoromethyl)pyridin-2-yl]piperazin-1-yl}pyrimidin-2-yl)(methyl)amino]ethanol]
C[C@@H]1CN(c2ncccc2C#N)CCN1c1cc(-c2ccc(F)cc2)nc(N2CCOCC2)n1 [Example 486, 2-{(3R)-4-[6-(4-fluorophenyl)-2-morpholin-4-ylpyrimidin-4-yl]-3-methylpiperazin-1-yl}nicotinonitrile]

Same assay, conditions: Table II; IC50 determined as described in Example 6 (antagonist activity, calcium mobilization)

IC50, ≤ 1000 nM:
CC1CCCN1c1nc(-c2ccc(F)c(Cl)c2)cc(N2CCN(c3ncc(C#N)cn3)CC2)n1 (stereo not shown) [Example 1009, 2-{4-[6-(3-chloro-4-fluorophenyl)-2-(2-methylpyrrolidin-1-yl)pyrimidin-4-yl]piperazin-1-yl}pyrimidine-5-carbonitrile]
Cc1ccnnc1N1CCN(c2cc(-c3ccc(F)c(Cl)c3)nc(N3CCCC3C)n2)CC1 (stereo not shown) [Example 1001, 3-{4-[6-(3-ohloro-4-fluorophenyl)-2-(2-methylpyrrolidin-1-yl)pyrimidin-4-yl]piperazin-1-yl}-4-methylpyridazine]
C[C@@H]1CN(c2ccccc2F)CCN1c1cc(-c2ccc(F)c(Cl)c2)nc(N2CCC[C@@H]2C)n1 [Example 989, 4-(3-chloro-4-fluorophenyl)-6-[(2R)-4-(2-fluorophenyl)-2-methylpiperazin-1-yl]-2-[(2S)-2-methylpyrrolidin-1-yl]pyrimidlne]

Same assay, conditions: Table II; determined as described in Example 6 (antagonist activity); "*" = 1 micromolar or less

IC50, ≤ 1000 nM:
C[C@@H]1CN(c2ncccc2Cl)CCN1c1cc(-c2ccc(C#N)cc2)nc(N2CCCC2)n1 [Example 860, 4-{6-[(2R)-4-(3-chloropyridin-2-yl)-2-methylpiperazin-1-yl]-2-pyrrolidin-1-ylpyrimidin-4-yl}benzonitrite]
CCCN1CCN(c2nc(-c3ccc(F)c(Cl)c3)cc(N3CCN(c4ncc(N)cc4C)CC3)n2)CC1 [Example 819, 6-{4-[6-(3-chloro-4-fluorophenyl)-2-(4-propylpiperazin-1-yl)pyrimidin-4-yl]piperazin-1-yl}-5-methylpyridin-3-amine]
CCOC(=O)c1ccc(-c2cc(N3CCN(c4ncccc4Cl)C[C@H]3C)nc(N3CCCC3C)n2)cc1 (stereo in doubt) [Example 867, ethyl 4-[6-[4-(3-chloropyridin-2-yl)-2-methylpiperazin-1-yl]-2-(2-methylpyrrolidin-1-yl)pyrimidin-4-yl]benzoate]
C[C@@H]1CN(c2nccnc2Cl)CCN1c1cc(-c2ccc(F)c(F)c2)nc(Cl)n1 (stereo in doubt) [Example 823, 2-chloro-4-[4-(3-chloropyrazin-2-yl)-2-methylpiperazin-1-yl]-6-(3,4-difluorophenyl)pyrimidine]
CN(C)C1CN(c2nc(-c3ccc(F)c(Cl)c3)cc(N3CCN(c4ncccc4C(F)(F)F)CC3)n2)C1 [Example 789, 1-(4-(3-chloro-4-fluorophenyl)-6-{4-[3-(trifluoromethyl)pyridin-2-yl]piperazin-1-yl}pyrimidin-2-yl)-N,N-dimethylazetidin-3-amine]
O=C(O)CCc1cccc(-c2cc(N3CCN(c4ncccc4C(F)(F)F)CC3)nc(N3CCOCC3)n2)c1 [Example 848, 3-(3-(2-morpholin-4-yl-6-{4-[3-(trifluoromethyl)pyridin-2-yl]piperazin-1-yl}pyrimidin-4-yl)phenyl]propanoic acid]
C[C@@H]1CN(c2nccnc2Cl)CCN1c1cc(-c2ccc(F)c(F)c2)nc(N2CCC[C@H]2C)n1 [Example 935, 4-[(2R)-4-(3-chloropyrazin-2-yl)-2-methylpiperazin-1-yl]-6-(3,4-difluorophenyl)-2-[(2R)-2-methylpyrrolidin-1-yl]pyrimidine]
CC1CCCN1c1nc(-c2ccc(Cl)c(F)c2)cc(N2CCN(c3ncccc3Cl)C[C@H]2C)n1 (stereo partly shown) [Example 834, 4-(4-chloro-3-fluorophenyl)-6-[4-(3-chloropyridin-2-yl)-2-methylpiperazin-1-yl]-2-(2-methylpyrrolidin-1-yl)pyrimidine]
[O-][n+]1ccc(-c2nc(-c3ccc(F)c(Cl)c3)cc(N3CCN(c4ncccc4C(F)(F)F)CC3)n2)cc1 [Example 813, 4-(3-chloro-4-fluorophenyl)-2-(1-oxidopyridin-4-yl)-6-{4-[3-(trifluoromethyl)pyridin-2-yl]piperazin-1-nlyl}pyrimidine]
COc1cnc(N2CCN(c3cc(-c4ccc(F)c(Cl)c4)nc(N4CCCC4C)n3)CC2)c(C)c1 (stereo not shown) [Example 818, 4-(3-chloro-4-fluorophenyl)-6-[4-(5-methoxy-3-methylpyridin-2-yl)piperazin-1-yl]-2-(2-methylpyrrolidin-1-yl)pyrimidine]

Same assay, conditions: determined as described in Example 6 (calcium mobilization, antagonist activity); Table II

IC50, ≤ 1000 nM:
Nc1nc(-c2ccc(F)c(Cl)c2)cc(N2CCN(c3ncccc3C(F)(F)F)CC2)n1 [Example 584, 4-(3-chloro-4-fluorophenyl)-6-{4-[3-(trifluoromethyl)pyridin-2-yl]piperazin-1-yl}pyrimidin-2-amine]
Cc1cc(-c2cc(N3CCN(c4ncccc4C(F)(F)F)CC3)nc(C(C)N(C)C)n2)ccc1F (stereo not shown) [Example 681, 1-(4-(4-fluoro-3-methylphenyl)-6-{4-[3-(trifluoromethyl)pyridin-2-yl]piperazin-1-yl}pyrimidin-2-yl)-N,N-dimethylethanamine]
CCC(C)N(C)c1nc(-c2ccc(F)c(C)c2)cc(N2CCN(c3ncccc3C(F)(F)F)CC2)n1 (stereo not shown) [Example 757, N-(sec-butyl)-4-(4-fluoro-3-methylphenyl)-N-methyl-6-{4-[3-(trifluoromethyl)pyridin-2-yl]piperazin-1-yl}pyrimidin-2-amine]
Cc1cc(-c2cc(N3CCN(c4ncccc4C(F)(F)F)CC3)nc(N(C)C(C)C)n2)ccc1F [Example 640, 4-(4-fluoro-3-methylphenyl)-N-isopropyl-N-methyl-6-{4-[3-(trifluoromethyl)pyridin-2-yl]piperazin-1-yl}pyrimidin-2-amine]
CC1CN(C)CCN1c1nc(-c2ccc(F)c(Cl)c2)cc(N2CCN(c3ncccc3C(F)(F)F)CC2)n1 (stereo not shown) [Example 630, 4-(3-chloro-4-fluorophenyl)-2-(2,4-dimethylpiperazin-1-yl)-6-{4-[3-(trifluoromethyl)pyridin-2-yl]piperazin-1-yl}pyrimidine]
